Source: publication PMC9945734 (BMC Medicine, 2023)

Tested on: PC-3-KQ and PC-3-KR cells
Test: RNA-sequencing and differential gene expression
Assay type: cell-based, human

CC(=O)Oc1ccccc1C(=O)Nc1ncc([N+](=O)[O-])s1 [Nitazoxanide]
SERPINA5 Change (KQ-Control vs KQ-NTZ) (RNA-Seq, PC-3-KQ cells): DOWN
SERPINA5 logFC (KQ-Control vs KQ-NTZ) (RNA-Seq, PC-3-KQ cells): -0.8689
SERPINB3 Change (KQ-Control vs KQ-NTZ) (RNA-Seq, PC-3-KQ cells): DOWN
SERPINB3 logFC (KQ-Control vs KQ-NTZ) (RNA-Seq, PC-3-KQ cells): -1.6793
SERPINB4 Change (KQ-Control vs KQ-NTZ) (RNA-Seq, PC-3-KQ cells): DOWN
SERPIND1 Change (KQ-Control vs KQ-NTZ) (RNA-Seq, PC-3-KQ cells): DOWN
SERPIND1 logFC (KQ-Control vs KQ-NTZ) (RNA-Seq, PC-3-KQ cells): -1.1652
SGK1 Change (KQ-Control vs KQ-NTZ) (RNA-Seq, PC-3-KQ cells): DOWN
SGK1 logFC (KQ-Control vs KQ-NTZ) (RNA-Seq, PC-3-KQ cells): -0.7813
SHISA3 Change (KQ-Control vs KQ-NTZ) (RNA-Seq, PC-3-KQ cells): DOWN
SHISA3 logFC (KQ-Control vs KQ-NTZ) (RNA-Seq, PC-3-KQ cells): -0.8421
SLC22A4 Change (KQ-Control vs KQ-NTZ) (RNA-Seq, PC-3-KQ cells): DOWN
SLC22A4 logFC (KQ-Control vs KQ-NTZ) (RNA-Seq, PC-3-KQ cells): -0.8073
SLC26A9 Change (KQ-Control vs KQ-NTZ) (RNA-Seq, PC-3-KQ cells): DOWN
SLC26A9 logFC (KQ-Control vs KQ-NTZ) (RNA-Seq, PC-3-KQ cells): -0.6605
SLC45A2 Change (KQ-Control vs KQ-NTZ) (RNA-Seq, PC-3-KQ cells): DOWN
SLC45A2 logFC (KQ-Control vs KQ-NTZ) (RNA-Seq, PC-3-KQ cells): -0.7358
SLITRK5 Change (KQ-Control vs KQ-NTZ) (RNA-Seq, PC-3-KQ cells): DOWN
SLITRK5 logFC (KQ-Control vs KQ-NTZ) (RNA-Seq, PC-3-KQ cells): -0.708
SVEP1 Change (KQ-Control vs KQ-NTZ) (RNA-Seq, PC-3-KQ cells): DOWN
SVEP1 logFC (KQ-Control vs KQ-NTZ) (RNA-Seq, PC-3-KQ cells): -1.4829
TCN1 Change (KQ-Control vs KQ-NTZ) (RNA-Seq, PC-3-KQ cells): DOWN
TCN1 logFC (KQ-Control vs KQ-NTZ) (RNA-Seq, PC-3-KQ cells): -0.7528
TENM4 Change (KQ-Control vs KQ-NTZ) (RNA-Seq, PC-3-KQ cells): DOWN
TENM4 logFC (KQ-Control vs KQ-NTZ) (RNA-Seq, PC-3-KQ cells): -0.7441
TIMM8A Change (KQ-Control vs KQ-NTZ) (RNA-Seq, PC-3-KQ cells): DOWN
TNF Change (KQ-Control vs KQ-NTZ) (RNA-Seq, PC-3-KQ cells): DOWN
TNF logFC (KQ-Control vs KQ-NTZ) (RNA-Seq, PC-3-KQ cells): -0.6786
TNFRSF6B Change (KQ-Control vs KQ-NTZ) (RNA-Seq, PC-3-KQ cells): DOWN
TNFRSF6B logFC (KQ-Control vs KQ-NTZ) (RNA-Seq, PC-3-KQ cells): -0.5861
TNFRSF11B Change (KQ-Control vs KQ-NTZ) (RNA-Seq, PC-3-KQ cells): DOWN
TNFRSF11B logFC (KQ-Control vs KQ-NTZ) (RNA-Seq, PC-3-KQ cells): -2.1243
TSPAN18 Change (KQ-Control vs KQ-NTZ) (RNA-Seq, PC-3-KQ cells): DOWN
TSPAN18 logFC (KQ-Control vs KQ-NTZ) (RNA-Seq, PC-3-KQ cells): -0.7268
TTC30A Change (KQ-Control vs KQ-NTZ) (RNA-Seq, PC-3-KQ cells): DOWN
TTC30A logFC (KQ-Control vs KQ-NTZ) (RNA-Seq, PC-3-KQ cells): -0.7519
TTC30B Change (KQ-Control vs KQ-NTZ) (RNA-Seq, PC-3-KQ cells): DOWN
TTC30B logFC (KQ-Control vs KQ-NTZ) (RNA-Seq, PC-3-KQ cells): -0.6538
XKRX Change (KQ-Control vs KQ-NTZ) (RNA-Seq, PC-3-KQ cells): DOWN
XKRX logFC (KQ-Control vs KQ-NTZ) (RNA-Seq, PC-3-KQ cells): -0.6274
ZFPM2 Change (KQ-Control vs KQ-NTZ) (RNA-Seq, PC-3-KQ cells): DOWN
ZFPM2 logFC (KQ-Control vs KQ-NTZ) (RNA-Seq, PC-3-KQ cells): -1.4661
ZNF28 Change (KQ-Control vs KQ-NTZ) (RNA-Seq, PC-3-KQ cells): DOWN
ZNF28 logFC (KQ-Control vs KQ-NTZ) (RNA-Seq, PC-3-KQ cells): -0.6433
ZNF302 Change (KQ-Control vs KQ-NTZ) (RNA-Seq, PC-3-KQ cells): DOWN
ZNF302 logFC (KQ-Control vs KQ-NTZ) (RNA-Seq, PC-3-KQ cells): -1.2333
logFC, gene ABCB11 (RNA-Seq, PC-3-KQ cells, KQ-Control vs KQ-NTZ, gene ABCB11): -0.7396
logFC, gene C5orf63 (RNA-Seq, PC-3-KQ cells, KQ-Control vs KQ-NTZ, gene C5orf63): -1.615
logFC, gene C11orf65 (RNA-Seq, PC-3-KQ cells, KQ-Control vs KQ-NTZ, gene C11orf65): -0.9307
logFC, gene CELF3 (RNA-Seq, PC-3-KQ cells, KQ-Control vs KQ-NTZ, gene CELF3): -0.8233
logFC, gene LOC107985532 (RNA-Seq, PC-3-KQ cells, KQ-Control vs KQ-NTZ, gene LOC107985532): -0.9452
logFC, gene MROH8 (RNA-Seq, PC-3-KQ cells, KQ-Control vs KQ-NTZ, gene MROH8): -0.9801
logFC, gene RLN1 (RNA-Seq, PC-3-KQ cells, KQ-Control vs KQ-NTZ, gene RLN1): -1.0231
logFC, gene RP1L1 (RNA-Seq, PC-3-KQ cells, KQ-Control vs KQ-NTZ, gene RP1L1): -0.9422
logFC, gene SAXO2 (RNA-Seq, PC-3-KQ cells, KQ-Control vs KQ-NTZ, gene SAXO2): -0.8856
logFC, gene TNFAIP8L2-SCNM1 (RNA-Seq, PC-3-KQ cells, KQ-Control vs KQ-NTZ, gene TNFAIP8L2-SCNM1): -0.9389
logFC, gene ZNF154 (RNA-Seq, PC-3-KQ cells, KQ-Control vs KQ-NTZ, gene ZNF154): -0.8416
logFC, gene ZNF596 (RNA-Seq, PC-3-KQ cells, KQ-Control vs KQ-NTZ, gene ZNF596): -0.9026
Change (KQ-Control vs KQ-NTZ), gene ABCB11 (RNA-Seq, PC-3-KQ cells, gene ABCB11): DOWN
Change (KQ-Control vs KQ-NTZ), gene C5orf63 (RNA-Seq, PC-3-KQ cells, gene C5orf63): DOWN
Change (KQ-Control vs KQ-NTZ), gene C11orf65 (RNA-Seq, PC-3-KQ cells, gene C11orf65): DOWN
Change (KQ-Control vs KQ-NTZ), gene CELF3 (RNA-Seq, PC-3-KQ cells, gene CELF3): DOWN
Change (KQ-Control vs KQ-NTZ), gene LOC107985532 (RNA-Seq, PC-3-KQ cells, gene LOC107985532): DOWN
Change (KQ-Control vs KQ-NTZ), gene MROH8 (RNA-Seq, PC-3-KQ cells, gene MROH8): DOWN
Change (KQ-Control vs KQ-NTZ), gene RLN1 (RNA-Seq, PC-3-KQ cells, gene RLN1): DOWN
Change (KQ-Control vs KQ-NTZ), gene RP1L1 (RNA-Seq, PC-3-KQ cells, gene RP1L1): DOWN
Change (KQ-Control vs KQ-NTZ), gene SAXO2 (RNA-Seq, PC-3-KQ cells, gene SAXO2): DOWN
Change (KQ-Control vs KQ-NTZ), gene TNFAIP8L2-SCNM1 (RNA-Seq, PC-3-KQ cells, gene TNFAIP8L2-SCNM1): DOWN
Change (KQ-Control vs KQ-NTZ), gene ZNF154 (RNA-Seq, PC-3-KQ cells, gene ZNF154): DOWN
Change (KQ-Control vs KQ-NTZ), gene ZNF596 (RNA-Seq, PC-3-KQ cells, gene ZNF596): DOWN
change of NTZ treatment (gene AADACL3): down
change of NTZ treatment (gene ABAT): up
change of NTZ treatment (gene ADIRF): up
logFC (gene ADIRF, KQ-Control vs KQ-NTZ): 0.6207
logFC (gene AKR1B1, KQ-Control vs KQ-NTZ): 1.237
change of NTZ treatment (gene AKR1C1): up
logFC (gene AKR1C1, KQ-Control vs KQ-NTZ): 1.37
change of NTZ treatment (gene AKR1C3): up
change of NTZ treatment (gene ANG): up
logFC (gene ANG, KQ-Control vs KQ-NTZ): 1.354
